# Read-outs that look alike come from different tables or passages of the source.
# Experiments:
# human AR [1] = molecular target: T1, human AR (Homo sapiens, UniProt P10275); test: AR whole cell competitive binding assay (3H-DHT), transfected COS-1 cells; parameters: expressed in transfected cells; transient transfection with pRShAR; details: COS-1 cells, 1 nM 3H-DHT, Cheng-Prusoff from IC50; read-out: AR Binding Ki
# T1 sequence (P10275 1-920): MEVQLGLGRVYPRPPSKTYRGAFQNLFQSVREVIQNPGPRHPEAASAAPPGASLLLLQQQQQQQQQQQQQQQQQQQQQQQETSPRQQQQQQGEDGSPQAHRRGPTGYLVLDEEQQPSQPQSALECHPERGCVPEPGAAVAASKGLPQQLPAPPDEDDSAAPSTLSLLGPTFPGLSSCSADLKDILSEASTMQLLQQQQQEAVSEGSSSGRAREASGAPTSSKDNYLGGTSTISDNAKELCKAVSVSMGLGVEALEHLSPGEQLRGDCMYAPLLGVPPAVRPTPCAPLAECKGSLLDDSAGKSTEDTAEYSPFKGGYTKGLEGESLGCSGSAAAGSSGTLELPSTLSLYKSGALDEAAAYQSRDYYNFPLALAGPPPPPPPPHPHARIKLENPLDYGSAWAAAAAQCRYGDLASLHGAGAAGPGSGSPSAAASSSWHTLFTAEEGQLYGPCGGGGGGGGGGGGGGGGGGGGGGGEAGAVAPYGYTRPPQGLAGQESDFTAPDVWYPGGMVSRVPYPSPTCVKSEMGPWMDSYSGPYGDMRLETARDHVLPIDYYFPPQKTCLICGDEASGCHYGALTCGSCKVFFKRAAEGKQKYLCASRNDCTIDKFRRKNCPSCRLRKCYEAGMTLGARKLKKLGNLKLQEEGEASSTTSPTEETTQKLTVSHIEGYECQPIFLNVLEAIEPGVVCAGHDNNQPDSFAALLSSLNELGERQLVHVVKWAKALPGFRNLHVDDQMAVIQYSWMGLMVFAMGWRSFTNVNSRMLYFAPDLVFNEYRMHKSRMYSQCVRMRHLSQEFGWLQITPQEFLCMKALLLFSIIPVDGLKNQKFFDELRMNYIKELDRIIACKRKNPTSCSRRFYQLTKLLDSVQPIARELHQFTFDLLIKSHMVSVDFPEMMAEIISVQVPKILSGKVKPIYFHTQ
# Description: AR Binding: For the whole cell binding assay, COS-1 cells in 96-well microtiter plates containing DMEM-10% FBS were transfected as described above with the following plasmid DNA: pRShAR (2 ng/well), pRS-β-Gal (50 ng/well) and pGEM (48 ng/well). Six hours after transfection, media was removed, the cells were washed with PBS and fresh media was added. The next day, the media was changed to DMEM-serum free to remove any endogenous ligand that might be complexed with the receptor in the cells.
# Three replicates were used for each sample. […] The remaining media was removed, the cells were washed three times with PBS to remove unbound ligand and cells were lysed with a Triton X-100-based buffer.
# For the saturation analyses, the difference between the total binding and the nonspecific binding, normalized by the β-Gal rate, was defined as specific binding. […] The Ki values were determined by application of the Cheng-Prusoff equation to the IC50 values, where: […]
# After correcting for non-specific binding, IC50 values were determined. […] The IC50 value was determined graphically from a log-logit plot of the data. The Ki values were determined by application of the Cheng-Prusoff equation to the IC50 values, the labeled ligand concentration and the Kd of the labeled ligand.
# human AR [2] = molecular target: T1, human AR; test: Co-transfection assay, AR agonist activity, CV-1 cells; assay type: cell-based; parameters: expressed in transfected cells; host or cells: CV-1 cells (African green monkey kidney fibroblasts), transient transfection with pRShAR; details: for AR Agonist CV-1 Cells Efficacy (%): percent maximal response relative to reference agonist DHT
# Text: (§1) The co-transfection assay provides a method for identifying functional agonists and partial agonists which mimic, or antagonists which inhibit, the effect of native hormones and quantifying their activity for responsive IR proteins. In this regard, the co-transfection assay mimics an in vivo system in the laboratory. Importantly, activity in the co-transfection assay correlates very well with known in vivo activity, such that the co-transfection assay functions as a qualitative and quantitative predictor of a tested compounds in vivo pharmacology. See, e.g., T. Berger et al. 41 J. Steroid Biochem. Molec.
# (§2) In the co-transfection assay, a cloned cDNA for an IR (e.g., human PR, AR or GR) under the control of a constitutive promoter (e.g., the SV 40 promoter) is introduced by transfection (a procedure to induce cells to take up foreign genes) into a background cell substantially devoid of endogenous IRs. This introduced gene directs the recipient cells to make the IR protein of interest. A second gene is also introduced (co-transfected) into the same cells in conjunction with the IR gene. This second gene, comprising the cDNA for a reporter protein, such as firefly luciferase (LUC), controlled by an appropriate hormone responsive promoter containing a hormone response element (HRE). This reporter plasmid functions as a reporter for the transcription-modulating activity of the target IR. Thus, the reporter acts as a surrogate for the products (mRNA then protein) normally expressed by a gene under control of the target receptor and its native hormone.
# (§3) The co-transfection assay can detect small molecule agonists or antagonists of target IRs. Exposing the transfected cells to an agonist ligand compound increases reporter activity in the transfected cells. This activity can be conveniently measured, e.g., by increasing luciferase production, which reflects compound-dependent, IR-mediated increases in reporter transcription. […] To detect antagonists, the co-transfection assay is carried out in the presence of a constant concentration of an agonist to the target IR (e.g., progesterone for PR) known to induce a defined reporter signal. Increasing concentrations of a suspected antagonist will decrease the reporter signal (e.g., luciferase production). The co-transfection assay is therefore useful to detect both agonists and antagonists of specific IRs. Furthermore, it determines not only whether a compound interacts with a particular IR, but whether this interaction mimics (agonizes) or blocks (antagonizes) the effects of the native regulatory molecules on target gene expression, as well as the specificity and strength of this interaction.
# (§4) CV-1 cells (African green monkey kidney fibroblasts) were cultured in the presence of Dulbecco's Modified Eagle Medium (DMEM) supplemented with 10% charcoal resin-stripped fetal bovine serum then transferred to 96-well microtiter plates one day prior to transfection.
# (§5) The reporter plasmid, MTV-LUC, contains the cDNA for firefly luciferase (LUC) under control of the mouse mammary tumor virus (MTV) long terminal repeat, a conditional promoter containing an androgen response element. See e.g., Berger et al. supra. In addition, pRS-β-Gal, coding for constitutive expression of E. coli β-galactosidase (β-Gal), was included as an internal control for evaluation of transfection efficiency and compound toxicity.
# (§6) Six hours after transfection, media was removed and the cells were washed with phosphate-buffered saline (PBS). […] Three to four replicates were used for each sample. Transfections and subsequent procedures were performed on a Biomek 1000 automated laboratory work station.
# (§7) After 40 hours, the cells were washed with PBS, lysed with a Triton X-100-based buffer and assayed for LUC and β-Gal activities using a luminometer or spectrophotometer, respectively. For each replicate, the normalized response (NR) was calculated as: LUC response/β-Gal rate • where β-Gal rate=β-Gal·1×10^−5/β-Gal incubation time.
# human AR [3] = molecular target: T1, human AR; test: Co-transfection assay, AR antagonist activity in presence of DHT, CV-1 cells; assay type: cell-based; parameters: expressed in transfected cells; host or cells: CV-1 cells (African green monkey kidney fibroblasts), transient transfection with pRShAR; details: for AR Antagonist CV-1 Cells Efficacy (%): percent maximal inhibition, DHT at its EC50 concentration
# Text: as §1, §2, §3, §4, §5, §6, §7
# [4] = agonist potency or EC50, read-out: AR Agonist CV-1 Cells Potency
# [5] = CV-1 cells, antagonist potency or IC50, DHT at its EC50 concentration, read-out: AR Antagonist CV-1 Cells Potency
# [6] = AR Agonist CV-1 Cells Potency (nM), agonist potency or EC50
# [7] = AR Antagonist CV-1 Cells Potency (nM), CV-1 cells, antagonist potency or IC50, DHT at its EC50 concentration
compound,measurement,setting,value
"5,6-Dimethyl-7-(2,2,2-trifluoroethyl)-4-trifluoromethyl-7H-pyrrolo[3,2-f]quinolin-2(1H)-one [Compound 150]",Ki,human AR [1],4 nM
same,EC50,human AR [2]; [4],2.1 nM
same,AR Agonist CV-1 Cells Efficacy (%),human AR [2],95%
same,IC50,human AR [3]; [5],> 10000 nM
same,AR Antagonist CV-1 Cells Efficacy (%),human AR [3]; CV-1 cells,"na (na = not active (i.e. efficacy of <20 and potency of >10,000))"
"5-(2-Ethoxycarbonylethyl)-6-methyl-7-(2,2,2-trifluoroethyl)-4-trifluoromethyl-7H-pyrrolo[3,2-f]quinolin-2(1H)-one [Compound 162]",Ki,human AR [1],113 nM
same,EC50,human AR [2]; [4],20 nM
same,AR Agonist CV-1 Cells Efficacy (%),human AR [2],71%
same,IC50,human AR [3]; [5],> 10000 nM
same,AR Antagonist CV-1 Cells Efficacy (%),human AR [3]; CV-1 cells,"na (na = not active (i.e. efficacy of <20 and potency of >10,000))"
"5-(4-Fluorophenyl)-6-methyl-7-(2,2,2-trifluoroethyl)-4-trifluoromethyl-7H-pyrrolo[3,2-f]quinolin-2(1H)-one [Compound 161]",Ki,human AR [1],30 nM
same,EC50,human AR [2]; [4],238 nM
same,AR Agonist CV-1 Cells Efficacy (%),human AR [2],27%
same,IC50,human AR [3]; [5],10 nM
same,AR Antagonist CV-1 Cells Efficacy (%),human AR [3]; CV-1 cells,66%
"5-Allyl-6-methyl-4-trifluoromethyl-7H-pyrrolo[3,2-f]quinolin-2(1H)-one [Compound 114]",Ki,human AR [1],81 nM
same,EC50,human AR [2]; [4],> 10000 nM
same,AR Agonist CV-1 Cells Efficacy (%),human AR [2],"na (na = not active (i.e. efficacy of <20 and potency of >10,000))"
same,IC50,human AR [3]; [5],6.6 nM
same,AR Antagonist CV-1 Cells Efficacy (%),human AR [3]; CV-1 cells,81%
"5-Ethyl-6-propyl-7-(2,2,2-trifluoroethyl)-4-trifluoromethyl-7H-pyrrolo[3,2-f]quinolin-2(1H)-one [Compound 155]",Ki,human AR [1],7.4 nM
same,EC50,human AR [2]; [4],9.4 nM
same,AR Agonist CV-1 Cells Efficacy (%),human AR [2],59%
same,IC50,human AR [3]; [5],> 10000 nM
same,AR Antagonist CV-1 Cells Efficacy (%),human AR [3]; CV-1 cells,"na (na = not active (i.e. efficacy of <20 and potency of >10,000))"
"6,7-Dihydro-8,8,10-trimethyl-4-(trifluoromethyl)-8H-pyrano[3,2-g]quinolin-2(1H)-one [Compound 206]",EC50,human AR [2]; [4],> 10000 nM
same,AR Agonist CV-1 Cells Efficacy (%),human AR [2],"na (na = not active (i.e. efficacy of <20 and potency of >10,000))"
same,IC50,human AR [3]; [5],175 nM
same,AR Antagonist CV-1 Cells Efficacy (%),human AR [3]; CV-1 cells,90%
"6,7-Dihydro-8,8-dimethyl-4-(trifluoromethyl)-8H-pyrano[3,2-g]quinolin-2(1H)-one [Compound 202]",EC50,human AR [2]; [4],> 10000 nM
same,AR Agonist CV-1 Cells Efficacy (%),human AR [2],"na (na = not active (i.e. efficacy of <20 and potency of >10,000))"
same,IC50,human AR [3]; [5],146 nM
same,AR Antagonist CV-1 Cells Efficacy (%),human AR [3]; CV-1 cells,92%
"6-Ethyl-5-methyl-7-(2,2,2-trifluoroethyl)-4-trifluoromethyl-7H-pyrrolo[3,2-f]quinolin-2(1H)-one [Compound 153]",EC50,human AR [2]; [4],7.6 nM
same,AR Agonist CV-1 Cells Efficacy (%),human AR [2],76%
same,IC50,human AR [3]; [5],> 10000 nM
same,AR Antagonist CV-1 Cells Efficacy (%),human AR [3]; CV-1 cells,"na (na = not active (i.e. efficacy of <20 and potency of >10,000))"
"CC(C)C1c2c(ccc3[nH]c(=O)cc(C(F)(F)F)c23)N(CC(F)(F)F)C1C (racemic) [Compound 144, (±)-5,6-cis-Dihydro-5-isopropyl-6-methyl-7-(2,2,2-trifluoroethyl)-4-trifluoromethyl-7H-pyrrolo[3,2-f]quinolin-2(1H)-one]",EC50,human AR [2]; [6],> 10000 nM
same,AR Agonist CV-1 Cells Efficacy (%),human AR [2],"na (na = not active (i.e. efficacy of <20 and potency of >10,000))"
same,IC50,human AR [3]; [7],23 nM
same,AR Antagonist CV-1 Cells Efficacy (%),human AR [3]; CV-1 cells,53%
"CCC1CCOc2cc3c(cc21)c(C(F)(F)F)cc(=O)n3C (racemic) [Compound 220, (±)-6,7-Dihydro-6-ethyl-4-trifluoromethyl-1-methyl-8H-pyrano[3,2-g]quinolin-2(1H)-one]",EC50,human AR [2]; [6],> 10000 nM
same,AR Agonist CV-1 Cells Efficacy (%),human AR [2],"na (na = not active (i.e. efficacy of <20 and potency of >10,000))"
same,IC50,human AR [3]; [7],23 nM
same,AR Antagonist CV-1 Cells Efficacy (%),human AR [3]; CV-1 cells,67%
"CCc1c(C)c2cc3[nH]c(=O)cc(C(F)(F)F)c3cc2n1CC(F)(F)F [Compound 163, 7-Ethyl-8-methyl-6-(2,2,2-trifluoroethyl)-4-trifluoromethyl-6H-pyrrolo[2,3-g]quinolin-2(1H)-one]",EC50,human AR [2]; [6],> 10000 nM
same,AR Agonist CV-1 Cells Efficacy (%),human AR [2],"na (na = not active (i.e. efficacy of <20 and potency of >10,000))"
same,IC50,human AR [3]; [7],8.2 nM
same,AR Antagonist CV-1 Cells Efficacy (%),human AR [3]; CV-1 cells,37%
"CC1CC(C)(C)N(CC(F)(F)F)c2ccc3[nH]c(=O)ccc3c21 (centres unmarked) [Compound 182, 8-(2,2,2-Trifluoroethyl)-5,6,7,8-tetrahydro-5,7,7-trimethylpyrido[3,2-f]quinolin-2(1H)-one]",AR Agonist CV-1 Cells Efficacy (%),human AR [2],"na (na = not active (i.e. efficacy of <20 and potency of >10,000))"
same,IC50,human AR [3],13 nM
same,AR Antagonist CV-1 Cells Efficacy (%),human AR [3]; CV-1 cells,81%
"(−)-6,7-Dihydro-6-ethyl-4-trifluoromethyl-8H-pyrano[3,2-g]quinolin-2(1H)-one [Compound 217]",EC50,human AR [2]; [4],> 10000 nM
same,AR Agonist CV-1 Cells Efficacy (%),human AR [2],"na (na = not active (i.e. efficacy of <20 and potency of >10,000))"
same,IC50,human AR [3]; [5],64 nM
same,AR Antagonist CV-1 Cells Efficacy (%),human AR [3]; CV-1 cells,85%

# Reference: patent US7727980B2, “Tricyclic androgen receptor modulator compounds and methods” (priority 2001, dated 2010)
